The text below walks through data of patent publication US20060252683A1, “Preparation of a peptide compound (SYRAPRO-2000) and its use for the activation of protein phosphatase-2A1 enzyme” (priority 2005, published 2006).

Holding throughout (type): cell-based, human
The nature of series [1]: Cell viability (tryphan blue) and cell death of HTB-3 cells. Conditions: human, HTB-3 cells (glioblastoma cell line), 2000 nM, 8 days of incubation, read-out: treated cells non viable (tryphan blue staining). As to the method:
(§1) Panel A, HTB-3 cells (a human glioblastoma cell line) were grown in DMEM and 5% (v/v) fetal bovine serum. Cells (10^6 cells per ml) were treated (+) or not (−) with 2000 nM SYRAPRO-2000. Cell viability was then determined by counting the cells following tryphan blue staining after 4, 8 and 12 days of incubation. Panel B, Following treatment with or without SYRAPRO-2000 for 8 days, HTB-3 cells grown on slides were analyzed by phase contrast microscopy (Row A), by fluorescence microscopy following staining with FITC labeled annexin V (apoptotic cell death) (Row B) or propidium iodide (oncolytic cell death) on a Cells were analyzed on a Zeiss Axioplan 2 imaging universal microscope (Thornwood, N.Y.). Phase contrast images and Green (FITC labeled annexin V) and red (propidium iodide) fluorescence images were obtained. […]
(§2) HTB-3 cells are grown in DMEM supplemented with 5% (v/v) fetal bovine serum and antibiotics and treated or not with 2 μM SYRAPRO-2000 for 8 days. Following treatment with SYRAPRO-2000, cell viability are then determined by counting the cells following tryphan blue staining. […] Following treatment with SYRAPRO-2000, cells grown on slides by were analyzed by phase contrast microscopy and fluorescence microscopy following staining with FITC labeled annexin V (an indicator of apoptotic cell death) or propidium iodide (an indicator of oncolytic or necrotic cell death). […]

Series [2] has as its system HTB-3 cells. The description is as above. To be noted: 2000 nM, 8 days. How it is done: as §1, §2
The nature of series [3]: Cell viability (tryphan blue) and cell death of Jurkat cells. To be noted: human, Jurkat cells (CD4+ T cell line), 1000 nM, four hours of incubation, read-out: treated cells non viable (tryphan blue staining). How it is done:
(§3) Panel A, Jurkat cells (a CD^4+ T cell line) were grown in RPMI 1640 and 10% (v/v) fetal bovine serum. Cells (10^6 cells per ml) were treated (+) or not (−) with 1000 nM SYRAPRO-2000. Cell viability was then determined by counting the cells following tryphan blue staining after 1, 2 and 4 hours of incubation. Panel B, Following treatment with SYRAPRO-2000 for 1, 2 and 4 hours as indicated, Jurkat cells (10^6/ml) were washed with RPMI plus 2% fetal bovine serum and then deposited onto glass slides by cytospinning. Phase contrast images were then obtained with white light emission on a Zeiss Axioplan 2 imaging universal microscope (Thornwood, N.Y.). […]
(§4) Jurkat cells are grown in RPMI 1680 medium supplemented with 5% (v/v) fetal bovine serum and antibiotics and treated or not with 1 μM of SYRAPRO-2000 for 1 hour, 2 hours and 4 hours. Following treatment with SYRAPRO-2000, cell viability are then determined by counting the cells following tryphan blue staining. […]
(§5) Following treatment of cells with SYRAPRO-2000, cells were examined by phase contrast microscopy or by fluorescent microscopy following staining with FITC labeled annexin V (apoptotic cell death) and propidium iodide (oncolytic cell death). Cells were analyzed on a Zeiss Axioplan 2 imaging universal microscope (Thornwood, N.Y.). […] Green (FITC labeled annexin V) and red (propidium iodide) fluorescence images were obtained. […]

Series [4] has as its system Jurkat cells. The description is as above. To be noted: 1000 nM. As to the method: as §3, §4, §5

Molecules are shown by their SMILES.

In the case of `CC[C@H](C)[C@H](NC(=O)[C@H](CCCNC(=N)N)NC(=O)[C@H](CO)NC(=O)[C@H](Cc1c[nH]cn1)NC(=O)[C@H](CCCNC(=N)N)NC(=O)[C@H](CS)NC(=O)CNC(=O)[C@@H](NC(=O)[C@H](CCCNC(=N)N)NC(=O)[C@H](Cc1ccccc1)NC(=O)[C@@H](N)Cc1c[nH]cn1)[C@@H](C)CC)C(=O)NCC(=O)N[C@H](C(=O)N[C@H](C(=O)N[C@@H](CCCNC(=N)N)C(=O)N[C@@H](CCC(N)=O)C(=O)N[C@@H](CCCNC(=N)N)C(=O)N[C@@H](CCCNC(=N)N)C(=O)N[C@@H](C)C(=O)N[C@@H](CCCNC(=N)N)C(=O)N[C@@H](CC(N)=O)C(=O)NCC(=O)N[C@@H](C)C(=O)N[C@@H](CO)C(=O)N[C@@H](CCCNC(=N)N)C(=O)N[C@@H](CO)C(=O)O)[C@@H](C)O)C(C)C` [SYRAPRO-2000], in series [1], the cytotoxicity at 8 days, 2 µM is ~50%. In addition, the “mode of cell death (FITC-annexin V and propidium iodide staining)” value in series [2] is “apoptosis and oncolysis”. The cytotoxicity at 4 h, 1 µM in series [3] is ~60%. Moreover, the “mode of cell death (phase contrast microscopy)” value in series [4] was “oncolysis”.
